The supplement of paper PMC11451515

Tested on: P12-Ichikawa
Assay: cell viability relative to DMSO control; higher = less cytotoxic
Details: 48 h
In short: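 In 1536-well plates, 5 μl of leukemia cells were seeded per well: 500 cells/well for NOMO1 or SEM and 1000 cells/well for P12-Ichikawa. Each line had first been adapted for at least four passages in each medium. Library compounds in DMSO were pin-dosed at 11 threefold concentrations between 47 μM and 0.79 nM, and CellTiter-Glo One luminescence was read after 48 h at 37°C. Viability is a per-plate percentage relative to DMSO wells, with cell-free wells as background.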

[1] = RPMI 5 mM glucose + 10% FBS, 0.000781 µM
[2] = RPMI 5 mM glucose + 10% FBS, 0.00234 µM
[3] = RPMI 5 mM glucose + 10% FBS, 0.00702 µM
[4] = RPMI 5 mM glucose + 10% FBS, 0.0211 µM
[5] = RPMI 5 mM glucose + 10% FBS, 0.0632 µM
[6] = RPMI 5 mM glucose + 10% FBS, 0.19 µM
[7] = RPMI 5 mM glucose + 10% FBS, 0.569 µM
[8] = RPMI 5 mM glucose + 10% FBS, 1.71 µM
[9] = RPMI 5 mM glucose + 10% FBS, 5.12 µM
[10] = RPMI 5 mM glucose + 10% FBS, 15.4 µM
[11] = RPMI 5 mM glucose + 10% FBS, 46.1 µM
[12] = RPMI 5 mM glucose + 10% dialyzed FBS, 0.000781 µM
[13] = RPMI 5 mM glucose + 10% dialyzed FBS, 0.00234 µM
[14] = RPMI 5 mM glucose + 10% dialyzed FBS, 0.00702 µM
[15] = RPMI 5 mM glucose + 10% dialyzed FBS, 0.0211 µM
[16] = RPMI 5 mM glucose + 10% dialyzed FBS, 0.0632 µM
[17] = RPMI 5 mM glucose + 10% dialyzed FBS, 0.19 µM
[18] = RPMI 5 mM glucose + 10% dialyzed FBS, 0.569 µM
[19] = RPMI 5 mM glucose + 10% dialyzed FBS, 1.71 µM
[20] = RPMI 5 mM glucose + 10% dialyzed FBS, 5.12 µM
[21] = RPMI 5 mM glucose + 10% dialyzed FBS, 15.4 µM
[22] = RPMI 5 mM glucose + 10% dialyzed FBS, 46.1 µM
[23] = HPLM + 10% dialyzed FBS, 0.000781 µM
[24] = HPLM + 10% dialyzed FBS, 0.00234 µM
[25] = HPLM + 10% dialyzed FBS, 0.00702 µM
[26] = HPLM + 10% dialyzed FBS, 0.0211 µM
[27] = HPLM + 10% dialyzed FBS, 0.0632 µM
[28] = HPLM + 10% dialyzed FBS, 0.19 µM
[29] = HPLM + 10% dialyzed FBS, 0.569 µM
[30] = HPLM + 10% dialyzed FBS, 1.71 µM
[31] = HPLM + 10% dialyzed FBS, 5.12 µM
[32] = HPLM + 10% dialyzed FBS, 15.4 µM
[33] = HPLM + 10% dialyzed FBS, 46.1 µM

SMILES	cell viability [1] [%]	cell viability [2] [%]	cell viability [3] [%]	cell viability [4] [%]	cell viability [5] [%]	cell viability [6] [%]	cell viability [7] [%]	cell viability [8] [%]	cell viability [9] [%]	cell viability [10] [%]	cell viability [11] [%]	cell viability [12] [%]	cell viability [13] [%]	cell viability [14] [%]	cell viability [15] [%]	cell viability [16] [%]	cell viability [17] [%]	cell viability [18] [%]	cell viability [19] [%]	cell viability [20] [%]	cell viability [21] [%]	cell viability [22] [%]	cell viability [23] [%]	cell viability [24] [%]	cell viability [25] [%]	cell viability [26] [%]	cell viability [27] [%]	cell viability [28] [%]	cell viability [29] [%]	cell viability [30] [%]	cell viability [31] [%]	cell viability [32] [%]	cell viability [33] [%]
NC(=O)c1ncn([C@@H]2O[C@H](CO)[C@@H](O)[C@H]2O)c1O	129	123	119	130	124	126	133	123	111	117	108	118	126	113	123	122	121	123	122	109	110	104	–	–	–	–	–	–	–	–	–	–	–
CON(C)C(=O)N1/N=C(S[C@@]1(CCCN)C2=CC=CC=C2)/C3=CC(=CC=C3F)F	101	114	123	61.1	13.7	12.6	14.3	10.8	8.36	9.67	11.1	–	–	–	–	–	–	–	–	–	–	–	102	118	122	83.1	12.1	10.6	10.1	10.1	9	11.4	10.7
C[C@H]1O[C@H](C[C@H](O)[C@@H]1O)O[C@H]2[C@@H](O)C[C@@H](O[C@@H]2C)O[C@H]3[C@@H](O)C[C@@H](O[C@@H]3C)O[C@H]4CC[C@@]5(C)[C@H](CC[C@@H]6[C@@H]5C[C@@H](O)[C@]7(C)[C@H](CC[C@]67O)C/8=C/C(=O)OC8)C4	115	123	124	110	86.5	58.1	12.3	10.4	9.93	12.4	11.7	113	111	117	110	76.4	32.5	13.3	10.7	8.02	8.92	6.92	116	128	123	111	33.5	13.3	12.7	12.8	14.3	20.5	17.2
CNC(=O)Nc1ccc(-c2nc(N3CC4CCC(C3)O4)c3cnn(C4CCC5(CC4)OCCO5)c3n2)cc1	96.9	84.1	75.8	75.5	69.8	65.8	64.2	60.8	57.1	49.6	53	106	98	91.1	82.1	81.8	70.5	67.4	65.2	56.8	44.8	50.9	107	106	95.7	92.5	95.4	82.7	86.1	76.7	74.2	74.9	72.5
Cc1c(C)c2c(c(C)c1O)CCC(C)(COc1ccc(CC3SC(=O)NC3=O)cc1)O2 (configuration not stated)	–	–	–	–	–	–	–	–	–	–	–	–	–	–	–	–	–	–	–	–	–	–	112	127	121	126	126	127	131	136	129	118	109
CC/1=C(/N2[C@H](SC1)[C@H](NC(=O)C(N)C3=CC=CC=C3)C2=O)C(O)=O (some centres not stated)	–	–	–	–	–	–	–	–	–	–	–	–	–	–	–	–	–	–	–	–	–	–	119	122	129	133	136	135	133	136	144	136	138
OCCn1cc(-c2cnc3nnn(Cc4ccc5ncccc5c4)c3n2)cn1	108	115	114	107	106	122	115	101	100	99.6	86.5	108	122	114	118	122	115	115	109	112	96.9	88.6	116	116	116	110	112	110	110	107	103	98.9	75.4
COc1cccc2c1[C@]13CCN(CC4CC4)[C@H](C2)[C@]1(OC)CCC(=O)C3	94.6	113	56.9	110	136	129	127	121	123	117	123	92.9	120	68.7	120	123	127	133	118	122	127	116	99.7	120	66.7	124	125	122	121	121	127	116	119
CC(C)C[C@H](NC(=O)[C@@H](O)[C@H](N)Cc1ccccc1)C(=O)O	–	–	–	–	–	–	–	–	–	–	–	116	130	124	130	130	111	120	115	123	104	32	–	–	–	–	–	–	–	–	–	–	–
C=CCc1ccc(O)c(-c2ccc(O)c(CC=C)c2)c1	109	110	110	113	120	120	118	17.5	14.9	13.7	11	105	116	113	115	122	113	63.9	25.6	18.4	21.3	21.2	112	113	–	113	119	28.9	13.7	–	9.66	11.3	18.2
NC/1=N/C(=O)N(/C=N1)[C@@H]2O[C@H](CO)[C@@H](O)[C@H]2O	107	102	102	98.7	88.1	113	104	107	91.1	59	43.2	97.1	107	114	116	94.7	103	105	104	89.6	56	26.8	108	104	102	107	85.2	114	104	109	77	55.1	22.6
COc1cc(CNC(=O)CCCC/C=C/C(C)C)ccc1O	104	105	109	106	104	119	95.2	12.2	12.2	10.1	10.5	111	103	106	108	116	112	32.9	21.3	22.2	14.3	15.7	108	99.4	106	102	102	101	13.3	11	11	12.3	14.1
NC(=O)Nc1cc(-c2cccc(F)c2)sc1C(=O)N[C@H]1CCCNC1	–	–	–	–	–	–	–	–	–	–	–	–	–	–	–	–	–	–	–	–	–	–	121	124	125	122	130	112	111	74	13.4	7.94	6.66
OC[C@H]1O[C@@H](Oc2cc(O)cc(/C=C/c3ccc(O)cc3)c2)[C@H](O)[C@@H](O)[C@@H]1O	110	114	106	113	116	125	117	123	105	103	101	89.9	109	105	105	114	107	115	112	103	102	101	98.2	110	108	113	113	107	108	131	110	117	117
N#C/N=C(\NCCCCCCOc1ccc(Cl)cc1)Nc1ccncc1	101	66.3	8.62	9.03	8.69	8.93	8.18	6.73	5.76	5.53	3.94	117	45.9	8.98	8.5	8.43	8.45	8.57	6.65	6.26	5.72	2.79	92.5	30.8	7.9	7.51	7.45	6.55	6.06	4.77	5.75	5.32	2.54
N[S+](=O)([O-])OC[C@@H]1C[C@@H](n2ccc3c(N[C@H]4CCc5ccccc54)ncnc32)C[C@@H]1O	107	105	107	126	108	120	116	61.5	31.2	9.99	8.16	97.4	111	106	110	98.2	106	100	54.1	34.4	12.3	11.2	95.1	102	110	102	113	118	116	82.2	38.3	16.1	12.7
C[C@](N)(Cc1ccc(O)c(O)c1)C(=O)O	90.8	93.3	87.2	89.3	93.3	92.9	83.2	81.1	81	80.8	84.9	85.1	85.1	83.5	88.2	89.3	82.1	82.5	81.8	76.1	81.8	81.4	95.1	90.6	91.4	96.8	102	87.7	77	90.4	87.8	81.2	84.8
CCOC(=O)Nc1ccc(NCc2ccc(F)cc2)nc1N	107	116	116	125	118	111	110	102	91	108	99.8	115	101	101	104	111	111	112	103	104	101	100	114	114	110	113	120	117	109	105	96.5	94.6	107
